# Activity calls are given as the source filed them. No cut-off for these calls is given here.
# Tests used:
# [1] = molecular target: Histone deacetylase 1 (Homo sapiens, UniProt Q13547); assay: Inhibition of recombinant human HDAC1 using Ac-LGK(Ac)-AMC as substrate preincubated for 30 mins followed by substrate addition and measured after 90 mins by fluorescence based assay
# [2] = Metabolic stability in Sprague-Dawley rat liver microsomes assessed as half life at 5 uM preincubated for 5 mins followed by NADPH addition and measured after 60 mins by LCMS analysis; format: ADME, Microsome; settings: time 65 min
# [3] = molecular target: T1, Histone deacetylase 7 (Homo sapiens, UniProt Q8WUI4)
# T1 sequence (Q8WUI4 whole entry): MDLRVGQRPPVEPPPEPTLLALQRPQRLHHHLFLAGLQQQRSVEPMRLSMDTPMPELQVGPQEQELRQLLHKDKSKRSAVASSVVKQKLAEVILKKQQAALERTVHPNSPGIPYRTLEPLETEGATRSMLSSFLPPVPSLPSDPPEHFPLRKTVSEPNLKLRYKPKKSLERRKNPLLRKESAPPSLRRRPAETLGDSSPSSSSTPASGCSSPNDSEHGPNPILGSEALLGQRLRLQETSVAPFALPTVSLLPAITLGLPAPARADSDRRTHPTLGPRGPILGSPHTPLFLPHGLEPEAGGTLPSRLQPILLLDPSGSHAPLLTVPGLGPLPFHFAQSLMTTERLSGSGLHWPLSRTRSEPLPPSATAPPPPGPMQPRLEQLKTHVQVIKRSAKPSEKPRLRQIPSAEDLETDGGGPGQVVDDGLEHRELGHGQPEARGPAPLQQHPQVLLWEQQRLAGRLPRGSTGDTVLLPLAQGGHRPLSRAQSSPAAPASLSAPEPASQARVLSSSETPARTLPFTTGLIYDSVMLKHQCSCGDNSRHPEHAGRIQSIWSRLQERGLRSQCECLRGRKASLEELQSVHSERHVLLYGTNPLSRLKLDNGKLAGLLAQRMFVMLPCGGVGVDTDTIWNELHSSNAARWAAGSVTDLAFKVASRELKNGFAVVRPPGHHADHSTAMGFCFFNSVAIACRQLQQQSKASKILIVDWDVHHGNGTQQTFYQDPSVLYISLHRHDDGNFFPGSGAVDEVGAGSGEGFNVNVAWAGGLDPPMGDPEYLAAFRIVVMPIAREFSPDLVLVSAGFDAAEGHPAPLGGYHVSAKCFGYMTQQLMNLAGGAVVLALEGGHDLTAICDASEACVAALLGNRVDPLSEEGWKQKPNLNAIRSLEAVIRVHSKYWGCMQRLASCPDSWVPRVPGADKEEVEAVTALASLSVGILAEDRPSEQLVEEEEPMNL
# Description: Inhibition of recombinant human HDAC7 using Ac-LGK(TFA)-AMC as substrate pre-incubated for 15 mins followed by substrate addition and measured after 60 mins by fluorescence based assay
# [4] = molecular target: Histone deacetylase 4 (Homo sapiens, UniProt P56524); assay: Inhibition of recombinant human HDAC4 using Ac-LGK(TFA)-AMC as substrate pre-incubated for 15 mins followed by substrate addition and measured after 60 mins by fluorescence based assay
# [5] = Metabolic stability in Sprague-Dawley rat liver microsomes assessed as half life at 20 uM preincubated for 5 mins followed by NADPH addition and measured after 60 mins by LCMS analysis; format: ADME, Microsome; settings: time 65 min
# [6] = molecular target: Histone deacetylase 5 (Homo sapiens, UniProt Q9UQL6); assay: Inhibition of recombinant human HDAC5 using Ac-LGK(TFA)-AMC as substrate pre-incubated for 15 mins followed by substrate addition and measured after 60 mins by fluorescence based assay
# [7] = molecular target: T2, Histone deacetylase 8 (Homo sapiens, UniProt Q9BY41); assay: Inhibition of recombinant human HDAC8 using Ac-LGK(TFA)-AMC as substrate preincubated for 30 mins followed by substrate addition and measured after 90 mins by fluorescence based assay
# T2 sequence (Q9BY41 whole entry): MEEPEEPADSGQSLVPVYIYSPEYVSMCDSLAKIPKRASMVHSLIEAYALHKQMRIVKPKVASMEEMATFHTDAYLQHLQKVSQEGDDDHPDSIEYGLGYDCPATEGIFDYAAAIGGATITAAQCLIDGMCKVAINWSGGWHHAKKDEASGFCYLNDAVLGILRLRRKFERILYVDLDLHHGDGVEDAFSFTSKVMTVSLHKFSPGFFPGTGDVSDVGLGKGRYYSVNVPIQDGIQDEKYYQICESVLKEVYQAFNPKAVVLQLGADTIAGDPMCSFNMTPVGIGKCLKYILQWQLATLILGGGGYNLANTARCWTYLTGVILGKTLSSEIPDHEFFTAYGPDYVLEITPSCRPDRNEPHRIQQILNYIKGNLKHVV
# [8] = molecular target: Histone deacetylase 9 (Homo sapiens, UniProt Q9UKV0); assay: Inhibition of recombinant human HDAC9 using Ac-LGK(TFA)-AMC as substrate preincubated for 15 mins followed by substrate addition and measured after 60 mins by fluorescence based assay
# [9] = molecular target: T3, Class 1 histone deacetylase (Homo sapiens, UniProt Q13547+O15379+Q92769+Q9BY41); assay: Inhibition of Class 1 histone deacetylase in human THP-1 cells using Ac-LGK(Ac)-AMC as substrate incubated for 3 hrs followed by 50 uM SAHA addition and measured after 1 hr by fluorescence based assay; format: cell-based
# [10] = Inhibition of Class 2a histone deacetylase in human THP-1 cells using Ac-LGK(TFA)-AMC as substrate incubated for 3 hrs followed by 50 uM SAHA addition and measured after 1 hr by fluorescence based assay; format: cell-based
# [11] = molecular target: T3, Class 1 histone deacetylase; assay: Inhibition of Class 1 histone deacetylase in human THP-1 cells assessed as accumulation of Histone H4 acetylation levels at 1 to 10 uM incubated for 3 hrs by western blot analysis; format: cell-based; settings: dose 1-10 µM
# [12] = test system: Macrophage; assay: Antiinflammatory activity in human monocytes-derived macrophages assessed as inhibition of LPS-induced IL-1alpha secretion at 30 uM pretreated for 1 hr followed by LPS stimulation and measured after 24 hrs by homogenous time-resolved fluorescence assay; format: functional, cell-based; settings: time 25.0 hrs
# [13] = test system: Macrophage; assay: Antiinflammatory activity in human monocytes-derived macrophages assessed as inhibition of LPS-induced GM-CSF secretion at 30 uM pretreated for 1 hr followed by LPS stimulation and measured after 24 hrs by homogenous time-resolved fluorescence assay; format: functional, cell-based; settings: time 25.0 hrs
# [14] = test system: Macrophage; assay: Antiinflammatory activity in human monocytes-derived macrophages assessed as inhibition of LPS-induced IL-23 secretion at 30 uM pretreated for 1 hr followed by LPS stimulation and measured after 24 hrs by homogenous time-resolved fluorescence assay; format: functional, cell-based; settings: time 25.0 hrs
# [15] = test system: Macrophage; assay: Antiinflammatory activity in human monocytes-derived macrophages assessed as inhibition of LPS-induced IL-6 secretion at 30 uM pretreated for 1 hr followed by LPS stimulation and measured after 24 hrs by homogenous time-resolved fluorescence assay; format: functional, cell-based; settings: time 25.0 hrs
# [16] = test system: Macrophage; assay: Antiinflammatory activity in human monocytes-derived macrophages assessed as inhibition of LPS-induced CCL2 secretion at 30 uM pretreated for 1 hr followed by LPS stimulation and measured after 24 hrs by homogenous time-resolved fluorescence assay; format: functional, cell-based; settings: time 25.0 hrs
# [17] = test system: Macrophage; assay: Antiinflammatory activity in human monocytes-derived macrophages assessed as inhibition of LPS-induced IL-12p40 secretion at 30 uM pretreated for 1 hr followed by LPS stimulation and measured after 24 hrs by homogenous time-resolved fluorescence assay; format: functional, cell-based; settings: time 25.0 hrs
# [18] = Solubility of compound in PEG400 in PBS at 10 mg/ml; format: physicochemical
# [19] = molecular target: T4, Protein deacetylase HDAC6 (Homo sapiens, UniProt Q9UBN7); assay: Inhibition of recombinant human HDAC6 using Boc-Lys(Ac)-AMC as substrate pre-incubated for 15 mins followed by substrate addition and measured after 60 mins by fluorescence based assay
# T4 sequence (Q9UBN7 whole entry): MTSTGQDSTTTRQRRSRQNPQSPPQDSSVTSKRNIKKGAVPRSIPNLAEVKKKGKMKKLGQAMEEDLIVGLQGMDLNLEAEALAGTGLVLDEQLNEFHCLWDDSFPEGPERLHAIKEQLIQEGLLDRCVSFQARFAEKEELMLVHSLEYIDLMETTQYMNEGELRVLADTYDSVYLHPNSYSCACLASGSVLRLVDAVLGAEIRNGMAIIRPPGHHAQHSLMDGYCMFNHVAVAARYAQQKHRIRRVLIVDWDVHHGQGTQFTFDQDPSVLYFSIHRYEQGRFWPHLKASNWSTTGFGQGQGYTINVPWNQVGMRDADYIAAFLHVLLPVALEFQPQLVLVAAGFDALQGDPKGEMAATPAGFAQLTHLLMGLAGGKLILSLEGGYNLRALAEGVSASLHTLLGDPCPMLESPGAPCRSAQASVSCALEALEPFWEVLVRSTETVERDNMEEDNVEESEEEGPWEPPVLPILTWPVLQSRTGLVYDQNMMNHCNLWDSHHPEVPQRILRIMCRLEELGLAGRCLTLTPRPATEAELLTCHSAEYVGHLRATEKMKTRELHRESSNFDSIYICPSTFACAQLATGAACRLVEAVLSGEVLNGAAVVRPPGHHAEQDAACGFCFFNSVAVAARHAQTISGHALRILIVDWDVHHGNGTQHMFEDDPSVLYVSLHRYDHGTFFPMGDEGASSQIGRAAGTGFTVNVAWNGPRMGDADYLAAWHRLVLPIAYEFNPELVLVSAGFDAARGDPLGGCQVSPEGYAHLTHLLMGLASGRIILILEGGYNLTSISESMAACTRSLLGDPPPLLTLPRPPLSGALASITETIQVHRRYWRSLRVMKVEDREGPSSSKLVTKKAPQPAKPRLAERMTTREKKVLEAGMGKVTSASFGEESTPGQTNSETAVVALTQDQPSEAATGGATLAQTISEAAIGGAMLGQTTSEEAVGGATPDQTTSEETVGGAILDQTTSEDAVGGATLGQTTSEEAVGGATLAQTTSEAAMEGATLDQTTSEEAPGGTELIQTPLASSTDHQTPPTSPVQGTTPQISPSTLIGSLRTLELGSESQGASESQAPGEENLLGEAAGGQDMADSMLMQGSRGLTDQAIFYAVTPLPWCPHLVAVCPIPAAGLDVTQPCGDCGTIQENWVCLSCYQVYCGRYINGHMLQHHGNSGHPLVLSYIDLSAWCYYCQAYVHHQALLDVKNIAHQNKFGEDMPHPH
# Sequence of Histone deacetylase 1 (Q13547 whole entry): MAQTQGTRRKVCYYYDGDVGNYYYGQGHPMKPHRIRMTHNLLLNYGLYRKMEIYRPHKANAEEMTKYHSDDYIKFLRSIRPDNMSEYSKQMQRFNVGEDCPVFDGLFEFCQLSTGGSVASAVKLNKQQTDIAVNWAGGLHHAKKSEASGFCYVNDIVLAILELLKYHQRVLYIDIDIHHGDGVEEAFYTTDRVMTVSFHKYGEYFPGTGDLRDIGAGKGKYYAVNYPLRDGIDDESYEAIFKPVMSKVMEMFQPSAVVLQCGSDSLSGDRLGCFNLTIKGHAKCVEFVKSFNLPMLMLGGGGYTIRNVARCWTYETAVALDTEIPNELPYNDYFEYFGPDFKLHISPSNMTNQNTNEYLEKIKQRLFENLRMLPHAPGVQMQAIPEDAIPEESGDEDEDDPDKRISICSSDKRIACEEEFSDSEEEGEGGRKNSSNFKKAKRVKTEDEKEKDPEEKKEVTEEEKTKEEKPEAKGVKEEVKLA
# Sequence of Histone deacetylase 9 (Q9UKV0 whole entry): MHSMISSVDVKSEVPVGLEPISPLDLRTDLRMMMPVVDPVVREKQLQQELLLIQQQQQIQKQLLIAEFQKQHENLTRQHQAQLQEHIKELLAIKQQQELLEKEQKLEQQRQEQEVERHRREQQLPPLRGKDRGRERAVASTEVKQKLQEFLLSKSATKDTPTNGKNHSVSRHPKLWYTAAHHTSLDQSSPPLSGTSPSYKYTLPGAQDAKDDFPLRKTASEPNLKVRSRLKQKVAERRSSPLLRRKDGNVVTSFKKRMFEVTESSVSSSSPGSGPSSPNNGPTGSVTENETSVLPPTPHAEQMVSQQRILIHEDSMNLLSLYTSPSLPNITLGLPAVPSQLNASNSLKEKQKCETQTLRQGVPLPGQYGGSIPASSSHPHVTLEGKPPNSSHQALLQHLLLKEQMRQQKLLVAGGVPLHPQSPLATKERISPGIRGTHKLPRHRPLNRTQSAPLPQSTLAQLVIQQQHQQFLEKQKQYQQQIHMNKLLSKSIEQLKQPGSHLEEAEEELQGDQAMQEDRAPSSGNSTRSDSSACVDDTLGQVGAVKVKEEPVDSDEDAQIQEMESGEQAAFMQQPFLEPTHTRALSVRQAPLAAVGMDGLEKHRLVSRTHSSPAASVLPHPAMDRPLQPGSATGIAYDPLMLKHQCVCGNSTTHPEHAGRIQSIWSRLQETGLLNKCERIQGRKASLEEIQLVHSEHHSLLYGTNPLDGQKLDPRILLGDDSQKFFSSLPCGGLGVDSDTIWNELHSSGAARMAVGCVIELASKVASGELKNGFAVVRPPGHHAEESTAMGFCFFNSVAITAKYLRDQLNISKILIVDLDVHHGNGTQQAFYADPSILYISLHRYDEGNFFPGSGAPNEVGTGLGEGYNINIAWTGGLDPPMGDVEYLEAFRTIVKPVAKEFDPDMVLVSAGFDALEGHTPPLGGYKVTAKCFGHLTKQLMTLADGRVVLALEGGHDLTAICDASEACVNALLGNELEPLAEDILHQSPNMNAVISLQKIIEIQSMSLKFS
# Sequence of Histone deacetylase 5 (Q9UQL6 whole entry): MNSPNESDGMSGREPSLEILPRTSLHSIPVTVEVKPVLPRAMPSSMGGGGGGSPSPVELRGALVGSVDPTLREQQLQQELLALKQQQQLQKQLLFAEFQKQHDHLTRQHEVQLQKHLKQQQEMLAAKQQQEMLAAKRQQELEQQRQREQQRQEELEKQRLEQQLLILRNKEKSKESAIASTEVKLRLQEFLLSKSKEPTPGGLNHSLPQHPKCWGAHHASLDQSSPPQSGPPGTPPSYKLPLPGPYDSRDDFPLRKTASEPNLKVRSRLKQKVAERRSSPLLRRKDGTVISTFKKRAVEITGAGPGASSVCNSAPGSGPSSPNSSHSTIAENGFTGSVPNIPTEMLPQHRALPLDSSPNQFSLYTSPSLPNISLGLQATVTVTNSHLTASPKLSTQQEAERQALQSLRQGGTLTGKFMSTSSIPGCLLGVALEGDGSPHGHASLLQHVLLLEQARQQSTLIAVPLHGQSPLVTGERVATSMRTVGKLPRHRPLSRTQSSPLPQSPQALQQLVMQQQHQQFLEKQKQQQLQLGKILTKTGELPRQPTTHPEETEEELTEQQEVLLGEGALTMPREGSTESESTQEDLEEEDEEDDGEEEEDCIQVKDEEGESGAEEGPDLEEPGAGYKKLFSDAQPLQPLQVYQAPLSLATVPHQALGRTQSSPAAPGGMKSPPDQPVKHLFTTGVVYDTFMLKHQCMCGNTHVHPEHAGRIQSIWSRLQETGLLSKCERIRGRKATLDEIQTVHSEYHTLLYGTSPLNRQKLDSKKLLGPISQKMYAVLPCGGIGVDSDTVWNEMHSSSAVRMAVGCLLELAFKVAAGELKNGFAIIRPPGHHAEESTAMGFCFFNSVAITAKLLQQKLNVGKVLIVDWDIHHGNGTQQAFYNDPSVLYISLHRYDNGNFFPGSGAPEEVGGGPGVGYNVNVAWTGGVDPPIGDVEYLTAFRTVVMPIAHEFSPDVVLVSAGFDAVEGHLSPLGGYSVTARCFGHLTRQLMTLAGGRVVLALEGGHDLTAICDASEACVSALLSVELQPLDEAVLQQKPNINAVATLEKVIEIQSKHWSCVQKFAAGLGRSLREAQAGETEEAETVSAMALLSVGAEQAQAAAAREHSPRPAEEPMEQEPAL
# Sequence of Histone deacetylase 4 (P56524 whole entry): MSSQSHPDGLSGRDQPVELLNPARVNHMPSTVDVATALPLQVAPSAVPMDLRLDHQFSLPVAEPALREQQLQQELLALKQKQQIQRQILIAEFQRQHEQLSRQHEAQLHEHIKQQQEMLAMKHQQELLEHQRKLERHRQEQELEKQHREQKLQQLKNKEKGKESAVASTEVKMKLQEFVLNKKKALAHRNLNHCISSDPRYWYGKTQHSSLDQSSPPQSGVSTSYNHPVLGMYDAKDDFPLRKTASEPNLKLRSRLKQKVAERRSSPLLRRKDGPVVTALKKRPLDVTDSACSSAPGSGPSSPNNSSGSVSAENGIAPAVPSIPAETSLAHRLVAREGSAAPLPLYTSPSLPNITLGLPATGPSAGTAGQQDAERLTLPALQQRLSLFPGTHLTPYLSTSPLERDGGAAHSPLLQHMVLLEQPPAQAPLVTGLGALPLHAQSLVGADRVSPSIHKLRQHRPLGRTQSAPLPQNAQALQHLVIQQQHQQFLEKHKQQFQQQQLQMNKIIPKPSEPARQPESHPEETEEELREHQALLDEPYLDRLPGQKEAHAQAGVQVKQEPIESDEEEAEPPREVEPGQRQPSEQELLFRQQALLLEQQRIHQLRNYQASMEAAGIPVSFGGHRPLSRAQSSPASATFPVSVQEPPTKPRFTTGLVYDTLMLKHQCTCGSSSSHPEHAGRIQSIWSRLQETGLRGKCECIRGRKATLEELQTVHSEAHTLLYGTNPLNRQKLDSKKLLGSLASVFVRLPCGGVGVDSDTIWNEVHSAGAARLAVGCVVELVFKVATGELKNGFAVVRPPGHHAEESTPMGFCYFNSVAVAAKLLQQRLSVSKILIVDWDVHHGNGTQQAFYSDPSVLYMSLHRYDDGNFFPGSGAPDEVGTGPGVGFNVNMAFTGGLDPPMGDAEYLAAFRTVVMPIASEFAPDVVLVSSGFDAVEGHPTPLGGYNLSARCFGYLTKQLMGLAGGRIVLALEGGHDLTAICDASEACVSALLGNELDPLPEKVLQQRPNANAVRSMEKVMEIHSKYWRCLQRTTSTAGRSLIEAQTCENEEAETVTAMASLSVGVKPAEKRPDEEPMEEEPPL
compound,measurement,setting,value
O=C(NO)[C@@H](CCCCN1C(=O)c2ccccc2C1=O)c1ccccc1,IC50,[1],19 µM
O=C(CCCCCCC(=O)Nc1ccccc1)NO [VORINOSTAT],half-life at 5 µM,[2],198 min
O=C(NO)C(OCCCN1C(=O)c2ccccc2C1=O)c1cccc(Cl)c1 (configuration not stated),IC50,[3],1100 nM
O=C(NO)c1ccc(CN2C(=O)CCC2=O)cc1-c1ccccc1,IC50,[1],> 100 µM
CC(C)(CNC(=O)c1cccc(-c2noc(C(F)(F)F)n2)c1)c1coc(-c2ccccc2)n1,IC50,[4],354 nM
same,IC50,[1],45 µM
same,half-life at 20 µM,[5],46 min
same,IC50,[6],216 nM
same,IC50,[7],2100 nM
same,IC50,[8],16 nM
same,IC50,[9],> 30 µM
same,IC50,[10],3000 nM
same,inhibition,[11],inactive
same,Activity,[12],Active
same,Activity,[13],Active
same,Activity,[14],Active
same,Activity,[15],Active
same,Activity,[16],Active
same,Activity,[17],inactive
Cc1ccc(C(=O)NO)c(-c2ccccc2)c1,IC50,[1],> 100 µM
O=C(NO)c1ccc(CN2C(=O)c3cccc(F)c3C2=O)cc1-c1ccccc1,half-life at 5 µM,[2],485 min
same,solubility,[18],Insoluble
same,IC50,[19],4.2 µM
same,IC50,[7],88 nM
same,IC50,[8],46 nM
same,IC50,[9],> 30 µM
same,IC50,[10],300 nM
O=C(NO)c1ccc(CN2C(=O)c3cccnc3C2=O)cc1-c1ccccc1,IC50,[1],> 100 µM
O=C(NO)C(OCCCN1C(=O)c2ccccc2C1=O)c1ccccc1 (configuration not stated),IC50,[3],1100 nM
O=C(NCCCCC(C(=O)NO)c1ccccc1)c1ccccc1O (configuration not stated),IC50,[1],> 10 µM
same,IC50,[3],1900 nM
O=C(NO)c1ccc(CN2C(=O)c3ccccc3C2=O)cc1,IC50,[1],0.17 µM
